Experimental data as given in EP1976842B1 (priority 2006, dated 2007).
Like-named read-outs stand apart in the source and are kept apart here.

Target: T1, alpha7 nAChR (Rattus norvegicus, UniProt Q05941)
T1 construct: expressed in transfected cells
Test: cell-based
Source text: Rat GH4C1 cells were then transfected with the rat receptor, cloned and analyzed for functional alpha7 nicotinic receptor expression employing a FLIPR assay to measure changes in intracellular calcium concentrations.
The FLIPR system allows the measurements of real time Ca^2+-concentration changes in living cells using a Ca^2+ sensitive fluorescence dye (such as Fluo4). This instrument enables the screening for agonists and antagonists for alpha 7 nAChR channels stably expressed in GH4Cl cells.
GH4Cl cells stably transfected with rat- alpha7-nAChR (see above) were used. These cells are poorly adherent and therefore pretreatment of flasks and plates with poly-D-lysine was carried out. Cells are grown in 150 cm^2 T-flasks, filled with 30 ml of medium at 37°C and 5% CO2.
EC50 and IC50 values were calculated using the IDBS XLfit4.1 software package employing a sigmoidal concentration-response (variable slope) equation: Y = Bottom + ((Top-Bottom)/(1+(((EC50/X))^(∧)⁢HillSlope)). [formula]
The compounds were tested using the functional FLIPR primary screening assay employing the stable recombinant GH4C1 cell line expressing the alpha7 nAChR. Hits identified were validated further by generation of concentration-response curves.

T1 sequence (Q05941 23-502): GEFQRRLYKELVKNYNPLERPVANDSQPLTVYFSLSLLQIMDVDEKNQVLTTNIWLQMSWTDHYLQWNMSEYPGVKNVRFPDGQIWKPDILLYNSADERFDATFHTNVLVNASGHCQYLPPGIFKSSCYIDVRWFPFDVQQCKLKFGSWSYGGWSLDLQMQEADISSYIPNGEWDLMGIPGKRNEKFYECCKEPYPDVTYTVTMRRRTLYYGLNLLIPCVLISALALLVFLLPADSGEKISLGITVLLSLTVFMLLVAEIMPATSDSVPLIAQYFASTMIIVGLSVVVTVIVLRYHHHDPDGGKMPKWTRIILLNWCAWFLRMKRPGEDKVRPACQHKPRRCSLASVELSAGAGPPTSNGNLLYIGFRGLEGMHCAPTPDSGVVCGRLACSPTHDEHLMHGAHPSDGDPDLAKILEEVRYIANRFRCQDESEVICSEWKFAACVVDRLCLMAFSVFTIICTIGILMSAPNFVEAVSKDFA

Row | Structure (SMILES) | EC50 [µM] | EC50 (agonist concentration-response, 0.001 to 30 microM, alpha7 nAChR stably expressed in GH4C1 cells, read-out: EC50) [µM]
1 | O=c1cccc2n1C[C@@H]1CNC[C@H]2C1 [Cytisine, cytisine] | 1.21 ± 0.13 | 
2 | C[N+]1(C)CCN(c2ccccc2)CC1 [DMPP] |  | 0.98 ± 0.47
3 | C[N+](C)(C)CCO [Choline, choline] | 24.2 ± 8.3 | 
